Laboratory results taken from patent US20230346773A1, “USE OF PCSK9 INHIBITOR IN PREPARATION OF PRODUCT FOR TREATING MULTIPLE DISEASES” (priority 2020, published 2023).
Marks after values point to notes of the source that are not given here.

Assays:
[1] = system: androgenetic alopecia (SA) rat model; experiment: Androgenetic alopecia (SA) rat model induced by testosterone propionate; format: in vivo, Wistar rats
Experimental: SPF grade Wistar rats were selected and randomly divided into compound group 1 (skin applied with 5% R-IMPP solution), compound group 2 (skin applied with 5% PF 06446846 solution), and compound group 3 (skin applied with 5% SBC-115076 solution), compound group 4 (skin applied with 5% SBC-110736 solution), monoclonal antibody group 1 (subcutaneous injection of PCSK9 monoclonal antibody ab84041, 5 mg/kg·d), monoclonal antibody group 2 (subcutaneous injection of Evolocumab, 5 mg/kg·d), monoclonal antibody group 3 (subcutaneous injection of Alirocumab, 5 mg/kg·d), PCSK9 RNAi inhibitor group-1 (skin applied with 5% PCSK9 small interfering RNA-1 solution), PCSK9 RNAi inhibitor group-2 (skin applied with 5% PCSK9 small interfering RNA-2 solution), PCSK9 RNAi inhibitor group-3 (skin applied with 5% PCSK9 small interfering RNA-3 solution), and polypeptide group (subcutaneous injection of Abcam company ab32727, 3 mg/kg·d), positive control group (skin smeared with 5% minoxidil tincture), negative control group (smeared with 75% ethanol), model control group (smeared with 75% ethanol), 10 rats in each group, half male and half female.
Before the experiment, each rat selected an area of 4 cm×5 cm on the back to remove the hair as the observation area. Except for the negative control group, the rats were subcutaneously injected with testosterone propionate injection [[…]] at the back of the neck, once a day for 60 consecutive days to establish the SA model. […] At the same time, the rats in the corresponding drug group were smeared or subcutaneously injected on the skin of the observation area of the rats in the drug group, smeared 1 ml/(per time), twice a day, with an interval of 8 hours, and administered by subcutaneous injection, once a day. The negative control group and the model control group were smeared with excipient (75% ethanol solution), 1 mL one rat per time, twice a day, for 60 consecutive days.
10 hairs were extracted from the observation area on the back of each rat every 15 days after administration, and the hair length was measured with a vernier caliper. After 60 days of administration, the skin of the experimental observation area was taken for routine tissue dehydration, paraffin embedding, HE staining, and light microscopy to observe the histopathological changes of the rat skin hair follicles and sebaceous glands. Semi-quantitative analysis was carried out in each group. The grading standards are as follows: normal skin dermal tissue cells, subcutaneous hair follicles, and sebaceous glands were marked as “one”; no hyperplasia in the dermis, limited lesions of hair follicles and sebaceous glands, and no subcutaneous inflammation, marked as “±”; no obvious hyperplasia found in the dermis, obviously cystic follicles, no obvious hyperplasia found in the sebaceous glands, and no inflammation is recorded as “+”; segmental hyperplasia of skin and dermis was not obvious, a small number of hair follicles had cystic degeneration, and sebaceous glands had mild hyperplasia and hypertrophy. No obvious inflammation under the skin was recorded as “++”; the skin and dermis tissue cells had segmental hyperplasia of different degrees, some follicles degenerated, the size of the hair follicles was uneven, and there were no cells in the periphery. There was hyperplasia of sebaceous glands, and there were few nuclei in the hyperplasia glands. Individual rats had mild inflammatory hyperplasia under the skin, which was marked as “+++”.

[2] = system: hair follicles / hair growth in depilated C57BL/6 mice; experiment: Hair growth in C57BL/6 mice after rosin/paraffin depilation; format: in vivo
Experimental: SPF grade C57BL/6 mice were selected and numbered according to their weight. They were randomly divided into compound group 1 (skin applied with 2% R-IMPP solution), compound group 2 (skin applied with 2% PF 06446846 solution), and compound group 3 (skin applied with 2% SBC-115076 solution), compound group 4 (skin applied with 2% SBC-110736 solution), monoclonal antibody group 1 (PCSK9subcutaneous injection monoclonal antibody ab81041, 5 mg/kg·d), monoclonal antibody group 2 (Subcutaneous injection of Evolocumab, 5 mg/kg·d), monoclonal antibody group 3 (subcutaneous injection of Alirocumab, 5 mg/kg·d), PCSK9 RNA interference group-1 (skin applied with 2% PCSK9 small interfering RNA-1 solution), PCSK9 RNA interference Group-2 (skin applied with 2% PCSK9 small interfering RNA-2 solution), PCSK9 RNA interference group-3 (skin applied with 2% PCSK9 small interfering RNA-3 solution), polypeptide group (subcutaneous injection of Abcam company ab32727, 3 mg/kg·d), positive control group (skin applied with 2% minoxidil solution), negative control group (skin applied with 60% ethanol), and model control group (skin applied with 60% ethanol), 10 mice in each group, half male and half female. After the mice were anesthetized with ether, they were coated on the back with a mixture of rosin and paraffin (1:1) after hot melting, and then peeled off after it solidified and hardened. The back of the mouse was cleaned to be hairless and without injuries. The depilation area was about 3 cm×4 cm. From the 2nd day after depilation, the corresponding drugs were applied to the hair removal area, twice a day, 0.5 mL per animal each time, and subcutaneously injected once a week.
From the second day after application, observe the daily color change of the skin on the back of the mice to determine the growth state of the hair follicles and visually observe the hair growth in the depilation area, and score the new hair growth in the depilation area once a day. Five mice in each group were reserved for 40 days of visual observation, and the growth of back hair was recorded.
On the 17th day, five mice in each group were sacrificed by cervical dislocation. The samples were taken from the same part of the back parallel to the spine, fixed with 10% formaldehyde, dehydrated, embedded in paraffin, sectioned, stained with HE, and sealed with neutral gum. Then the histology of hair follicles was observed under light microscope, and morphological staging of hair follicles was performed. According to the international hair cycle scoring method, the hair follicles were scored as follows: 100 points for growth stage VI, 200 points for early regression, 300 points for middle regression, and 400 points for late regression. 50 hair follicles were randomly selected from each mouse, the cycle of the hair follicles in each group was determined, and the average hair cycle score and the percentage of hair follicles in the growth phase VI, early regression, middle regression, and late regression were calculated.

[3] = hair removal area on the back of mice, after hair removal

In the case of Nc1cc(N2CCCCC2)nc(N)[n+]1[O-] [Positive control group, minoxidil], the “Skin hair follicles and sebaceous glands: number of rats graded ++” value ([1]; 10 rats, after 60 days, few follicles with cystic degeneration, sebaceous glands mild hyperplasia and hypertrophy) is reported as 2, the “Skin hair follicles and sebaceous glands: number of rats graded ±” value ([1]; 10 rats, after 60 days, no hyperplasia in the dermis, limited lesions of hair follicles and sebaceous glands, no subcutaneous inflammation) is reported as 3 and the “Skin hair follicles and sebaceous glands: number of rats graded +” value ([1]; 10 rats, after 60 days, no obvious hyperplasia in dermis, obviously cystic follicles, no inflammation) is reported as 5. The “Skin hair follicles and sebaceous glands: number of rats graded −” value ([1]; 10 rats, after 60 days, normal skin dermal tissue cells, subcutaneous hair follicles and sebaceous glands) was 0, the “Skin hair follicles and sebaceous glands: number of rats graded +++” value ([1]; 10 rats, after 60 days, segmental hyperplasia, degenerated follicles, hyperplasia of sebaceous glands, mild inflammatory hyperplasia) was 0 and the “15 d hair length” value ([1]; rats, 15 days after administration) was 7.9* mm. The “30 d hair length” value ([1]; rats, 30 days after administration) was 8.4* mm, the “45 d hair length” value ([1]; rats, 45 days after administration) was 12.8* mm and the “60 d hair length” value ([1]; rats, 60 days after administration) was 14.9* mm. For the same molecule, the “percentage of hair follicles in the growth stage VI” value ([2]; 17th day after hair plucking) was 42%, the “average hair cycle score” value ([2]; 17th day after hair plucking, 100 points growth stage VI, 200 early, 300 middle, 400 late regression) was 185 and the “Time from hair growth to the same length as the hair in the non-experimental area” value ([2]; back hair removal area of mice) was 15.77 days. For the same molecule, the “Time to grow new hair” value ([2]; back hair removal area of mice) was 7.85 days, the “Time to match the length of hair in the non-experimental area” value ([2]; back hair removal area of mice) was 23.62 days and the Black skin duration ([2]; hair removal area on the back of mice) was 12.80 days. The Skin black-turning time [2, 3] was 6.29* days and the Skin grayish-black-turning time [2, 3] was 19.09* days.
